Experimental data taken from ChEMBL document CHEMBL1201862, “PubChem BioAssay data set” (2004).
Active and inactive are the calls of the source.

Tests used:
[1] = P. falciparum Dd2 growth inhibitors, dose response, SYBR Green, dry powder samples, set 9 (AID 1159568); format: functional, cell-based
[2] = molecular target: T1, Streptokinase A (Streptococcus pyogenes serotype M1, UniProt P10520); experiment: S. pyogenes streptokinase expression inhibitors, potency, dose response, plasminogen activation absorbance, OD405 (AID 1914); format: functional, Streptococcus pyogenes M1 GAS;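 also: secreted streptokinase activity via plasminogen activation per viability signal from cell pellet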
T1 sequence (P10520 whole entry): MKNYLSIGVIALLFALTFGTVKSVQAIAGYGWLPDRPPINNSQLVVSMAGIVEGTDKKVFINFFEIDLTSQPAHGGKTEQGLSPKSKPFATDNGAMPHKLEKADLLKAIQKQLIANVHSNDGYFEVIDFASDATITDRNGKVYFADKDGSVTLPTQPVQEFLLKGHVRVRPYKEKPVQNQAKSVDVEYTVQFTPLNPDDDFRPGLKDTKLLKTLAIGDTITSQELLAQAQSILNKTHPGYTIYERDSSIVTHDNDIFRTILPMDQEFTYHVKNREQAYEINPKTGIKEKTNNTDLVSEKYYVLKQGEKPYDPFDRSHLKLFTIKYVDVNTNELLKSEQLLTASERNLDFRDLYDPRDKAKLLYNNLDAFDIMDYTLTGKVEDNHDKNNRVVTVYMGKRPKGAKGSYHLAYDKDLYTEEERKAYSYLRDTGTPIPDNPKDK

[3] = molecular target: Disintegrin and metalloproteinase domain-containing protein 17 (Homo sapiens, UniProt P78536); experiment: ADAM17 protease inhibitors, dose response, counter-screen for ADAM10 exosite inhibitor project, biochemical, quenched FRET substrate (AID 743253)
Chain of Disintegrin and metalloproteinase domain-containing protein 17 (P78536 whole entry, the tested form may be a part): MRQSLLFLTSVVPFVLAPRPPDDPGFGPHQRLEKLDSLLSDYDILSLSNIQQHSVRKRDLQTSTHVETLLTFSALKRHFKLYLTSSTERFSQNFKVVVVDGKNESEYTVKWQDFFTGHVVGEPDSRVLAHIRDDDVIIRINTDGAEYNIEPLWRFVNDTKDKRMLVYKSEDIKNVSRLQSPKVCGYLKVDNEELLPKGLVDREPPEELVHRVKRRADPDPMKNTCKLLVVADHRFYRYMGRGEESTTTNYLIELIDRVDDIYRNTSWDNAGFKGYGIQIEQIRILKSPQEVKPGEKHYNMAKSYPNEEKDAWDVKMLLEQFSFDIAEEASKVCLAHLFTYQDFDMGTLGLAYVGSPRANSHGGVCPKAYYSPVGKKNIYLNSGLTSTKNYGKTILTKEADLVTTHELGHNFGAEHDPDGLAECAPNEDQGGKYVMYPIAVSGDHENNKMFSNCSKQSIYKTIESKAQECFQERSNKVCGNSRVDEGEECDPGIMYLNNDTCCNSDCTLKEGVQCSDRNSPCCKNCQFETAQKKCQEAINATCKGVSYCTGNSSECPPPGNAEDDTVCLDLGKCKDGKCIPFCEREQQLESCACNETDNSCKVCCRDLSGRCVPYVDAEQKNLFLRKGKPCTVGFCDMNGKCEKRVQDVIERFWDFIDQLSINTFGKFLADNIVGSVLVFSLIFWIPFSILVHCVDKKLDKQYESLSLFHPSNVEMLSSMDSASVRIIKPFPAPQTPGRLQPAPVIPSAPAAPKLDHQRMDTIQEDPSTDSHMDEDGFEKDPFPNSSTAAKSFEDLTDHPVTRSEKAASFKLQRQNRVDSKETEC

[4] = molecular target: Albumin (Bos taurus, UniProt P02769); experiment: Counterscreen for inhibitors of T-cell receptor (TCR)-CD3 interaction: Fluorescence-based biochemical high throughput dose response assay to identify inhibitors of T-cell receptor (TCR)-CD3 interaction using a TAMRA-labeled BSA probe.; format: functional
Chain of Albumin (P02769 whole entry): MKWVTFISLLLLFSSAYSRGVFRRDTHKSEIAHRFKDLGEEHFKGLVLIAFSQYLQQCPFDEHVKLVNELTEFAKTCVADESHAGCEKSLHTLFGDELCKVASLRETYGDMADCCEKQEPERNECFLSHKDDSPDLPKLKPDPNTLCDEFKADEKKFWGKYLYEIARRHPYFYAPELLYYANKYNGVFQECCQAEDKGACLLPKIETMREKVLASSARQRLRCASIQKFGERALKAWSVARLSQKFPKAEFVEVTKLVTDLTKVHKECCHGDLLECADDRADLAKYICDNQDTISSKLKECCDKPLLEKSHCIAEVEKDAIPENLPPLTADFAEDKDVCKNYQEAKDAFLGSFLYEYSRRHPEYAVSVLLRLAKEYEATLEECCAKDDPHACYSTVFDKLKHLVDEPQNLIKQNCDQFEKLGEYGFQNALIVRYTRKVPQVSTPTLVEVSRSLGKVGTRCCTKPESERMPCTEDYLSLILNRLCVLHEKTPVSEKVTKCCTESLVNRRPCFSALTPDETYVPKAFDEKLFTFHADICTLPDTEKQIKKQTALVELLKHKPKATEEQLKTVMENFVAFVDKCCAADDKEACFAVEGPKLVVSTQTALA

[5] = cytotoxicity in KRAS-transformed pancreatic duct cells, primary screen, cell-based, fluorescence, HTS (AID 431); format: functional; settings: Homo sapiens;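 also: cell line used: HPDE-C7K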
[6] = cytotoxicity in HPDE-C7 cells, cell-based, fluorescence, HTS (AID 430); format: functional; settings: Homo sapiens
[7] = THP-1 cell cytotoxicity, dose response, cytotoxicity control for Vif-APOBEC3G degradation inhibitor project, THP-1 cells (AID 1117359); format: functional; settings: Human immunodeficiency virus 1, THP-1
[8] = NIH-3T3 fibroblast cytotoxicity, dose response, cytotoxicity control, cell-based, fluorescence, Alamar Blue, secondary assay (AID 2327); format: functional;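 also: NIH-3T3 mouse fibroblasts cultured with fluconazole at 8 µg/mL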
[9] = tested on: H9c2; experiment: cells; format: functional, cell-based; settings: Rattus norvegicus, H9c2, Myocardium;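 also: confirmatory concentration-response retest of ultra-high-throughput screening hits for modulation of myocardial damage; cell death induced by hydrogen peroxide oxidative stress; compound pretreatment for 60 min then peroxide exposure for 2 h; potency is for protecting the cells against peroxide damage rather than for killing them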
[10] = tested on: Streptococcus; experiment: Group A Streptococcus viability loss, dose response, counter-screen for streptokinase expression inhibitor project, luminescence, BacTiterGlo (AID 1915); format: functional, organism-based;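 also: potency for reduction of bacterial viability or growth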
[11] = tested on: Streptococcus sp. 'group A'; experiment: growth inhibition of control SK(-) GAS strain, dose response, counter-screen for streptokinase expression inhibitor project, luminescence, kanamycin, BacTiterGlo, confirmation (AID 1900); format: functional, organism-based
[12] = tested on: Vero; experiment: cells; format: functional; settings: Chlorocebus sabaeus
[13] = molecular target: 5-hydroxytryptamine receptor 2A (Mus musculus, UniProt P35363); format: functional, cell-based;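 also: CHO-K1 cells with tagged receptor and beta-arrestin; agonist potency measured as compound-induced activation of the receptor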
Chain of 5-hydroxytryptamine receptor 2A (P35363 whole entry): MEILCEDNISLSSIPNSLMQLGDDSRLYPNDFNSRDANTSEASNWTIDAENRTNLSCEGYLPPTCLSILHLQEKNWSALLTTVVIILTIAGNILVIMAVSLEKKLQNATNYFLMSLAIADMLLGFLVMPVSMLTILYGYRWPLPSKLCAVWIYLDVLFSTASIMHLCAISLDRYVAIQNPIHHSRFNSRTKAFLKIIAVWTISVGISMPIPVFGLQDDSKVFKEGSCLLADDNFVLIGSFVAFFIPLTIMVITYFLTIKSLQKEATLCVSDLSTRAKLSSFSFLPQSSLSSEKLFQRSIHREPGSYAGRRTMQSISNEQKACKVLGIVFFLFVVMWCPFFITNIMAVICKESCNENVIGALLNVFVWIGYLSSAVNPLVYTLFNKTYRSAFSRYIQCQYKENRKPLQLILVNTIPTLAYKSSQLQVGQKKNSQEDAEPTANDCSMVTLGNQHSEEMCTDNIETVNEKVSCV

[14] = molecular target: Mu-type opioid receptor (Homo sapiens, UniProt P35372); format: functional, cell-based;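 also: U2OS cells with beta-arrestin recruitment to OPRM1 by beta-gal complementation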
Chain of Mu-type opioid receptor (P35372 whole entry): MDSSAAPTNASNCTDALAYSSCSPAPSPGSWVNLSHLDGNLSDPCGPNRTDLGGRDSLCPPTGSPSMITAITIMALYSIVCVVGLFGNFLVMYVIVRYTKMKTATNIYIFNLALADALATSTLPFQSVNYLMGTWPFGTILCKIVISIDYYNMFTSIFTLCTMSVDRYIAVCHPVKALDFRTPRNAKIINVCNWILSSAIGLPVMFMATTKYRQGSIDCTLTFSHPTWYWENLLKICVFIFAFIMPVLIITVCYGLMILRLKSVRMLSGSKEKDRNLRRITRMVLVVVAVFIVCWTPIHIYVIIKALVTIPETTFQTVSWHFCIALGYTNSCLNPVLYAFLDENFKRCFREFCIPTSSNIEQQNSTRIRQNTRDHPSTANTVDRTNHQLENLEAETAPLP

[15] = P. falciparum Dd2 growth inhibitors, dose response, SYBR Green, dry powder samples (AID 1159566); format: functional, cell-based;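 also: potency for growth inhibition with lower SYBR green DNA signal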
[16] = P. falciparum ATP4 D1247Y mutant growth inhibitors, dose response, NITD609-resistant line, SYBR Green, dry powder (AID 1159571); format: functional, cell-based;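 also: parasites synchronized at ring stage by sorbitol before testing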
[17] = P. falciparum Dd2 growth inhibitors, dose response, SYBR Green, cherry-picked samples (AID 1159567); format: functional, cell-based
[18] = P. falciparum 3D7-ScDHODH growth inhibitors, dose response, SYBR Green, dry powder samples (AID 1159570); format: functional, cell-based;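 also: parasite growth measured after 72 hours of compound exposure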
[19] = molecular target: T2, Estrogen receptor (Homo sapiens, UniProt P03372);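 also: potency for inhibiting coactivator peptide recruitment to the receptor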
T2 sequence (P03372 whole entry): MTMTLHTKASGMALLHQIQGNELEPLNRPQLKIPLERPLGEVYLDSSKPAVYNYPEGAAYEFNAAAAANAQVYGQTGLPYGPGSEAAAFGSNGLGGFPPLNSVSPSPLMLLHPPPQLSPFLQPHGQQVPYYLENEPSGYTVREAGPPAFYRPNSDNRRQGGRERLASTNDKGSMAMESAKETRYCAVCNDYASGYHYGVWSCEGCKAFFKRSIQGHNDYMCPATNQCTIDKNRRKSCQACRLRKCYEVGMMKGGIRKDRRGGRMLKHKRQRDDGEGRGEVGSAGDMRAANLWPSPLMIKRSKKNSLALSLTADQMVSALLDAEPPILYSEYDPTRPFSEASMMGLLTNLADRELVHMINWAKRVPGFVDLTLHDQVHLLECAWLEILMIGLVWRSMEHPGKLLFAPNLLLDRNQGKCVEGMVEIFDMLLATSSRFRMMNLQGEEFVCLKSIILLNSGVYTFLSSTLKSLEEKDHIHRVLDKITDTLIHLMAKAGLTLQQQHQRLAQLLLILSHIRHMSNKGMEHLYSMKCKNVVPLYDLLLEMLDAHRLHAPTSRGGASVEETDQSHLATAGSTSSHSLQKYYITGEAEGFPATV

[20] = molecular target: Heat shock protein HSP 90-alpha (Homo sapiens, UniProt P07900); format: functional, organism-based
[21] = molecular target: T3, Heat shock factor protein 1 (Mus musculus, UniProt P38532); experiment: HSF1 potentiators in luciferase reporter cells, confirmation, cell-based, NIH3T3, luminescence, dose retest (AID 435004); format: functional;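 also: stress induced by proteasome inhibitor MG132 added 30 min after compound; luciferase reporter driven by HSF1 response element in NIH3T3 cells; actives raise luminescence as potentiators of the MG132 stress response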
T3 sequence (P38532 whole entry): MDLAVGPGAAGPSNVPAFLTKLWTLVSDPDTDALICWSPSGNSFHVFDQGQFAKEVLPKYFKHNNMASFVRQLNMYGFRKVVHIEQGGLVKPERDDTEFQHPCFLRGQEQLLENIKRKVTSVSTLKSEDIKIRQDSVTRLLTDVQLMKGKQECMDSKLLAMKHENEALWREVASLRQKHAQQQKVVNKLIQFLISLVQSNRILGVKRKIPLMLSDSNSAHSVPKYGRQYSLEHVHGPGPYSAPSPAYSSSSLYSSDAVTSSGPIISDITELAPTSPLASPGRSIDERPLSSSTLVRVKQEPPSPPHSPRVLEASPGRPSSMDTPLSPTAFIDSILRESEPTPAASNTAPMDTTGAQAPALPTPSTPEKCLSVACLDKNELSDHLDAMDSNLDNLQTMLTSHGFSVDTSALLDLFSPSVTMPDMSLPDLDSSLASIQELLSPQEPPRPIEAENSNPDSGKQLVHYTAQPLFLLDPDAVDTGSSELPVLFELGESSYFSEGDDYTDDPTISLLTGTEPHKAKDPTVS

[22] = molecular target: FAD-linked sulfhydryl oxidase ALR (Homo sapiens, UniProt P55789); experiment: inhibitors of human ALR sulfhydryl oxidase, dose response, biochemical, H2O2 detection, luminescence, cherry-pick (AID 493248)
Chain of FAD-linked sulfhydryl oxidase ALR (P55789 whole entry): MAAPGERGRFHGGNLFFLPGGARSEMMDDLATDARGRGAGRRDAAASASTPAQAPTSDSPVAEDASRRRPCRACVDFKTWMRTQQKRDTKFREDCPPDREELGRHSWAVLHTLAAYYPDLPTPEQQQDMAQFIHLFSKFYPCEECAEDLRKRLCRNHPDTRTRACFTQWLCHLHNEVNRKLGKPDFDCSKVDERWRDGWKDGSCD

[23] = molecular target: T4, Cysteine protease ATG4B (Homo sapiens, UniProt Q9Y4P1); format: functional;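 also: Fluorescence-based dose-response confirmation assay measuring inhibition of ATG4B activity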
T4 sequence (Q9Y4P1 whole entry): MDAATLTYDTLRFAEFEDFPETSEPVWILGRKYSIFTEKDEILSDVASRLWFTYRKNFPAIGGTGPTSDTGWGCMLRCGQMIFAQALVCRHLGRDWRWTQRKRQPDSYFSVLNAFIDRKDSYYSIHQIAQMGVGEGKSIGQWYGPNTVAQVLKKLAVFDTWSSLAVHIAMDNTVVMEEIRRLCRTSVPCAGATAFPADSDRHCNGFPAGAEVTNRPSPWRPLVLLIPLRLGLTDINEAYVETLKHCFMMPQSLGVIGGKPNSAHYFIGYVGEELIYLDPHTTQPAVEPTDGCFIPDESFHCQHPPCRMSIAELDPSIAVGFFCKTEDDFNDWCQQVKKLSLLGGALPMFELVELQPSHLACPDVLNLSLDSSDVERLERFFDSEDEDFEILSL

[24] = molecular target: Phospholipase A2 (Homo sapiens, UniProt P04054); format: functional;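 also: confirmatory dose-response counterscreen on phospholipase A2, testing hits that came from an ultra-high-throughput screen for ATG4B inhibitors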
Chain of Phospholipase A2 (P04054 whole entry): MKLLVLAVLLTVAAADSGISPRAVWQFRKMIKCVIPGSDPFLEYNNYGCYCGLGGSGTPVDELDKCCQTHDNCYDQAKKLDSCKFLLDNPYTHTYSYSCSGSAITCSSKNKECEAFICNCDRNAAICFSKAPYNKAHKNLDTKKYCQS

[25] = tested on: HEK293; experiment: cells; settings: Homo sapiens
[26] = microbe, parasite or virus in culture; format: functional; settings: Mycobacterium tuberculosis
[27] = inhibitors of firefly luciferase expression or activity, dose response, H4 neuroglioma cells, luminescence (AID 1990); format: functional, cell-based
[28] = inhibitors of SNCA 5'UTR-driven reporter translation, confirmation, H4 neuroglioma cells, luminescence (AID 1988); format: functional, cell-based
[29] = tested on: HEK293; experiment: cells; settings: Homo sapiens; remark: listed apart in the source

CS(=O)(=O)N1[C@H](C#N)[C@H](c2ccc(C#Cc3cccc(F)c3)cc2)[C@H]1CO
AC50 [1]: 10.1 µM (active)

COC(=O)c1ccc(N2CCC(c3cc(-c4ccc(OC)cc4)n[nH]3)CC2)c([N+](=O)[O-])c1
EC50 [2]: > 150 µM (not active)
IC50 [3]: > 69.5 µM (inactive)

Cc1ccc(O)c(/C=N/NC(=O)COc2ccc3c(C)cc(=O)oc3c2)c1
IC50 [4]: > 94.1 µM (inactive)

COc1ccc(-c2cnnn2-c2ccc(NC(=O)c3ccc(S(=O)(=O)N4CCCCC4)cc3)cc2)cc1OC
IC50 [4]: > 94.1 µM (inactive)

COc1ccc(C2NC3=C(CCCC3)C(C#N)(C#N)C2(C#N)C#N)cc1 (stereo not given)
EC50 [5]: > 20 µM (not active)
EC50 [6]: > 20 µM (not active)

COc1ccc(C(=O)C2CCCN(C(=O)c3cnsn3)C2)c(C)c1 (stereo not given)
CC50 [7]: > 40 µM (active)

COc1ccc(C(=O)Oc2c(CN3CCOCC3)cc(Cl)c3cccnc23)cc1
EC50 [5]: 13.4 µM (active)
EC50 [8]: > 160 µM (inactive)
CC50 [7]: 5.39 µM (active)
EC50 [6]: 5.17 µM (active)

COc1ccc(N(CC(=O)Nc2cccc(C(C)=O)c2)S(=O)(=O)c2ccc(NC(C)=O)cc2)cc1
IC50 [9]: > 79 µM (inactive)

N#CC1=C2SCC(O)(c3ccccc3)N2C(=O)CC1c1cccs1 (stereo not given)
EC50 [5]: 1.53 µM (active)
EC50 [6]: 1.44 µM (active)

O=C(NNC(=O)c1cc(-c2ccccc2)nc2ccccc12)Nc1cccc(Cl)c1
EC50 [10]: 40.2 µM (active)
EC50 [2]: 22.4 µM (active)
EC50 [11]: 3.9 µM (active)
IC50 [3]: > 69.5 µM (inactive)

O=[N+]([O-])c1cc(S(=O)(=O)Nc2ccccc2)ccc1N1CCN(c2ccccc2)CC1
EC50 [10]: > 150 µM (not active)
CC50 [12]: 13.5 µM (active)
EC50 [2]: 23.9 µM (active)
EC50 [11]: 16.2 µM (active)
IC50 [3]: > 69.5 µM (inactive)

c1ccc(COc2ccc(CN3CCN(c4ccccn4)CC3)cc2)cc1
EC50 [13]: 0.054 µM (active)
EC50 [14]: 92.5 µM (inactive)

C[C@@H]1CN([C@H](C)CO)C(=O)c2cccc(NC(=O)c3nc4ccccc4s3)c2O[C@H]1CN(C)C(=O)Nc1ccc(C(F)(F)F)cc1
AC50 [15]: 1.08 µM (active)
AC50 [16]: 0.816 µM (active)
AC50 [17]: 2.06 µM (active)
AC50 [18]: 1.18 µM (active)

C[C@@H]1CCCCO[C@H](CN(C)S(=O)(=O)c2ccc(F)cc2)[C@H](C)CN([C@H](C)CO)C(=O)c2cc(N(C)C)ccc2O1
AC50 [1]: 4.45 µM (active)

CCCSc1nc(C)c(-c2csc(C(C#N)=C3CCCC3)n2)cc1C#N
IC50 [19]: 9.34 µM (active)

O=C(N/N=C/c1ccccn1)c1cc(-c2ccc(Br)cc2)nc2ccccc12
AC50 [20]: 2.24 µM (active)
CC50 [12]: 9.94 µM (active)
EC50 [21]: 4.85 µM (active)

CCOc1cccc(CN2CCCC(C(=O)Nc3cccc(-n4cccn4)c3)C2)c1 (stereo not given)
CC50 [7]: > 40 µM (active)

CCNC(=O)/C(C#N)=C/c1c(N(Cc2ccccc2)Cc2ccccc2)nc2ccccn2c1=O
IC50 [9]: > 79 µM (inactive)

CCOC(=O)c1c(C)nc2sc3c(=O)n(-c4ccc(C(C)=O)cc4)cnc3c2c1-c1ccc(OC)cc1
IC50 [9]: > 79 µM (inactive)

COc1ccc(-c2cc(CNS(=O)(=O)c3ccc(NC(C)=O)cc3)on2)cc1
CC50 [12]: > 25 µM (active)

c1ccc2c(c1)NCC1CCCN21 (stereo not given)
CC50 [7]: > 40 µM (active)

COc1ccc([C@H]2C/C=C/C[C@H](C)Oc3ccccc3C(=O)N(C)[C@@H](Cc3ccccc3)C(=O)N2)c(OC)c1.COc1ccc([C@H]2C/C=C\C[C@H](C)Oc3ccccc3C(=O)N(C)[C@@H](Cc3ccccc3)C(=O)N2)c(OC)c1
AC50 [1]: 1.58 µM (active)

CC(C)c1ccc(NC2CCCN(C(=O)CCN3Cc4ccccc4C3=O)C2)cc1 (stereo not given)
AC50 [22]: 4.43 µM (active)
IC50 [23]: 15.5 µM (active)
IC50 [24]: 7.98 µM (active)

Cc1cc(NS(=O)(=O)c2ccc(Nc3nc(-c4ccc(C)c(C)c4)cs3)cc2)no1
IC50 [23]: 13.1 µM (active)
IC50 [24]: 11.9 µM (active)

Cc1ccccc1CN1CCN(C(=O)c2ccco2)CC1
EC50 [13]: 4.89 µM (active)
EC50 [14]: 92.5 µM (inactive)

Cc1cccc(NC(=O)COc2cccc3c2CCNC3=O)c1
IC50 [9]: > 79 µM (inactive)

CCOc1ccc(Nc2oc(-c3ccccc3Cl)nc2C#N)cc1
IC50 [19]: 9.54 µM (active)

CCOC(=O)CSc1nn(C)c(=S)s1
IC50 [19]: 7.98 µM (active)

COc1ccc(-c2nnc3sc(C4CCCCC4)nn23)cc1OC
EC50 [25]: > 59.7 µM (inactive)
CC50 [26]: > 40 µM (active)
EC50 [27]: 58.6 µM (active)
EC50 [28]: 25.6 µM (active)
EC50 [29]: > 59.7 µM (inactive)

COc1cc(OC)cc(-c2nc3ccccc3c(=O)n2OC(=O)c2ccc(Br)cc2)c1
IC50 [23]: 2.51 µM (active)
IC50 [24]: 4.74 µM (active)

COc1cc(CN2CCN(c3ncccn3)CC2)cc(OC)c1
EC50 [13]: 0.384 µM (active)
EC50 [14]: 92.4 µM (inactive)
